Source: patent publication US20130023504A1, “Modulation of Prostaglandin/Cyclooxygenase Metabolic Pathways” (HUNTER-FLEMING LIMITED, priority 2006, published 2013)
“And” between values parts separate entries of the source, which are not always exact repeats. Equal values may be shown once.

System: PC-12 cells
Assay: Ischaemia (oxygen-glucose deprivation)-induced cell death in NGF-differentiated PC-12 cells, Trypan Blue exclusion
Format: cell-based
Conditions: for decrease in cell death: vs. ischemia alone
Protocol: PC-12 cells were maintained on flasks coated with Collagen typel in PC-12 media with the following composition; RPMI 1640 without L-glutamine with 2 mM L-glutamine, 10 mM HEPES, 1 mM Sodium Pyruvate, additional glucose to give a final concentration of 4.5 g/L (RPMI normally has 2 g/L), 10% heat inactivated horse serum, 5% foetal calf serum and 50 units of penicillin/streptomycin. Media was changed every 2 days.
Confluent cultures of PC-12 cells were differentiated by culturing for 7 days in PC-12 medium without serum but with 50 ng/mlNGF (PC-12 NGF media). The cells were harvested, washed, counted and 1×10^5 PC-12 cells/well were plated overnight in a micro titre plate in glucose free PC-12 NGF medium. The medium was then changed to glucose-free PC-12 NGF medium containing the compounds to be tested and the plates left under normoxic conditions for 30 minutes.
During this stage, the media and test substances for the anoxic exposure were placed in a chamber and de-oxygenated with 95% N2/5% CO2. The media in the plates was changed with the de-oxygenated media and the plates then placed in an anaerobic chamber gassed with 95% N2 5% CO2 for 10 minutes before being sealed and incubated at 37° C. overnight (18 hours). For normoxia controls, the cells were treated identically to ischemic treatments except that all incubations were in 5% CO2/95% air.
Viability was determined using Trypan Blue exclusion.

| Compound | antagonism of the protective effect of 7β-OH-EPIA (10 μM indomethacin with 1 μM and 10 μM 7β-OH-EPIA) | decrease in cell death (10 μM) | decrease in cell death (100 μM) [%] |
| --- | --- | --- | --- |
| COc1ccc2c(c1)c(CC(=O)O)c(C)n2C(=O)c1ccc(Cl)cc1 [Indomethacin] | fully antagonised | no direct effect | 29 |
| C[C@]12N[C@H](Cc3ccccc31)c1ccccc12 [MK801] |  | 62% and 42% |  |
